Columns and labels:
c-fos = c-fos gene expression in PTZ-treated zebrafish larvae; type: in vivo, zebrafish (Danio rerio); details: 7 dpf zebrafish; for reduction of c-fos gene expression compared to PTZ alone: concentrations of Table 9
Experimental: Ten 7 dpf larvae were placed in 500 μL tank water in wells of a 48-well cell-culture plate and appropriate concentrations of drugs were added as in the behavior study (Table 9). After a 1 h pre-incubation period, PTZ was added to a final concentration of 15 mM in appropriate wells and larvae were incubated for a further 45 min. Fish were quickly euthanized by incubating the plate in an ice-water bath for 15 min. Fish were removed from each well and all liquid removed before freezing at −80° C. RNA was extracted using Trizol (Invitrogen) followed by the RNeasy Mini kit (Qiagen). Frozen embryos were homogenized in 800 μL Trizol using in-tube pestles and a motorized homogenizer. Following a 5-min incubation at room temperature, 200 μL chloroform was added and the samples were centrifuged at 12,000 g for 10 min. The aqueous phase was transferred to a new tube and 250 μL 100% ethanol was added and the samples mixed. This mixture was then transferred to the Qiagen minicolumn assembly and the protocol followed as described with the kit. Samples were eluted in 30 μL RNase free water and concentration was determined using the Nanodrop instrument (Thermo Fisher). cDNA was prepared using the RETROscript kit (Ambion) with 500 ng total RNA. cDNA was then diluted 1:1 with sterile dH2O and 2.5 μL of this cDNA was used in the QPCR reaction with SsoAdvanced SYBR Green Supermix (BioRad) and c-fos primers designed to span an intron-exon junction (c-fos F: […], SEQ ID NO:9; c-fos R: […], SEQ ID NO:10) ([…] each) in the BioRad CFX96 RealTime instrument. L13a and EF1a gene expression were used for normalization (Rahn et al., 2013). The following cycle conditions were used: 95° C./3 min, 40 cycles of 95° C./15 s, 62° C./30 s, followed by 95° C. 30 s and a dissociation curve. Samples were run in duplicate. The 2^−ΔΔCt method was used to quantify gene expression, whereby all gene Ct values were first normalized to Ct values of the geometric mean of the Ct of L13a and EF1a (Livak and Schmittgen, 2001). Treated samples were then normalized to the tank water control and converted to fold change.

HT22 cells [1] = experiment: Glutathione determination in glutamate-treated cells; type: cell-based, mouse; details: HT22, 10 mM glutamate 8 hrs, 500 nM
Experimental: The content of total glutathione (reduced and oxidized) in the supernatant of cell homogenate was measured using the glutathione assay kit (Cayman Chemical) in microtiter plate assay, which utilizes an enzymatic recycling method, using glutathione reductase, for the quantification of glutathione. The sulfhydryl group of glutathione reacted with 5,5′-dithiobis-2-nitrobenzoic acid (DTNB) and produced a yellow-colored 5-thio-2-nitrobenzoic acid (TNB), which was measured at 405 nm.

HT22 cells [2] = experiment: Mitochondrial morphology and superoxide generation (MitoSOX, Mitotracker); type: cell-based, mouse; details: HT22, high extracellular glutamate, co-treatment
Experimental: In order to evaluate the source of the ROS generation, fluorescence microscopy was used to image HT22 using the fluorogenic dyes Mitotracker Deep Red (DR) and MitoSOX Red (Invitrogen). Mitotracker DR is a cell permeant dye that accumulates in active, polarized mitochondria. […] Briefly, HT22 cells were seeded onto black walled 96-well plates at 5.0×10^3 cells per well in 75 μL of medium and maintained at 37° C. in 5% CO2 overnight prior to the initiation of experimental treatments. Cells were subsequently treated with 25 μL of medium containing glutamate (monosodium glutamate, Sigma-Aldrich, 1 M stock concentration in media, to achieve a final concentration of 10 mM) plus inhibitors (stock in DMSO) and maintained at 37° C. in 5% CO2. After 8 hrs, MitoSOX Red (5 μM) and Mitotracker DR (10 nM) were added to achieve the indicated final concentrations. Cells were allowed to incubate for 20 minutes and then washed twice with Hanks Balanced Salt Solution (HBSS; Hyclone; CaCl2 1.26 mM, MgCl2-6H2O 0.493 mM, MgSO4-7H2O 0.407 mM, KCl 5.33 mM, KH2PO4 0.441 mM, NaHCO3 4.17 mM, NaCl 137.93 mM, Na2HPO4 0.338 mM, D-Glucose 5.56 mM), with a final addition of 100 μL of HBSS in which the cells were visualized. Cells were immediately visualized using an InCell 2000 Analyzer (GE) with a 40× objective and a Cy5/Cy5 excitation/emission filter set for Mitotracker DR and a YFP/Cy3 filter set for MitoSOX Red. Image processing was performed using ImageJ, and for all images, the microscope and image processing settings, such as levels, brightness, contrast, and exposure time were held constant across all treatment conditions.

| Molecule | reduction of c-fos gene expression compared to PTZ alone (c-fos) | depletion of total cellular GSH (HT22 cells [1]) | mitochondrial superoxide generation and mitochondrial fragmentation (HT22 cells [2]) | fold reduction of c-fos gene expression compared to PTZ alone (c-fos; 6 μM pre-treatment) |
| --- | --- | --- | --- | --- |
| C#CCNC1=CC(=O)c2ccccc2C1=O [Compound 2h, 2-(prop-2-yn-1-ylamino)naphthalene-1,4-dione] | about half |  |  |  |
| O=C1C=C(NCc2ccccc2)C(=O)c2ccccc21 [Compound 2j, 2-(benzylamino)naphthalene-1,4-dione] | about half | does not prevent GSH | prevented these events |  |
| O=C1C=C(NCc2cccc(Cl)c2)C(=O)c2ccccc21 [Compound 2q, 2-((3-chlorobenzyl)amino)naphthalene-1,4-dione] | about half | does not prevent GSH | prevented these events |  |
| CC1=CC(=O)c2ccccc2C1=O [VK3, menadione, reference compound] |  |  |  | approximately 10 fold |
| menaquinones [VK2, reference compound] |  | does not prevent GSH | prevented these events |  |

— patent publication US10391070B2, “Compositions and methods for treating neurological diseases or injury” (MUSC FOUNDATION FOR RESEARCH DEVELOPMENT, priority 2012, dated 2019)
